Series [1] has as its system L5178Y. Put plainly: Cytotoxicity against mouse L5178Y cells after 24 hrs by MTT assay. The class given is functional, cell-based. (Formazan colour is commonly taken as a measure of viable cells.)
The test system of series [2] is NIH3T3. Put plainly: Cytotoxicity against mouse NIH/3T3 cells after 24 hrs by MTT assay. Conditions: NIH3T3, 24 h. The class given is cell-based.
A short description of series [3]: Selectivity index, ratio of IC50 for mouse L5178Y cells to IC50 for human ABCB1 expressed in L5178Y cells.
Series [4] addresses T1, ATP-dependent translocase ABCB1 (Homo sapiens, UniProt P08183). Description: Inhibition of human ABCB1 expressed in mouse L5178Y cells assessed as increase in rhodamine-123 accumulation by measuring forward scatter count of cells at 2 uM pretreated for 10 mins followed by rhodamine-123 addition after 20 mins by flow cytometry (reference value: 2206). The class given is cell-based. A general note: In flow cytometry, cells or beads pass a laser one at a time.

The target of series [5] is T1, ATP-dependent translocase ABCB1. Put plainly: Inhibition of human ABCB1 expressed in mouse L5178Y cells assessed as increase in rhodamine-123 accumulation by measuring forward scatter count of cells at 20 uM pretreated for 10 mins followed by rhodamine-123 addition after 20 mins by flow cytometry (reference value: 2206). The class given is cell-based.
The target is the same in series [6]. Description: Inhibition of human ABCB1 expressed in mouse L5178Y cells assessed as increase in rhodamine-123 accumulation by measuring side scatter count of cells at 2 uM pretreated for 10 mins followed by rhodamine-123 addition after 20 mins by flow cytometry (reference value: 903). Type of series: cell-based.
The target is the same in series [7]. Put plainly: Inhibition of human ABCB1 expressed in mouse L5178Y cells assessed as increase in rhodamine-123 accumulation by measuring side scatter count of cells at 20 uM pretreated for 10 mins followed by rhodamine-123 addition after 20 mins by flow cytometry (reference value: 903). The class given is cell-based.
For series [8] the target is unchanged. Description: Inhibition of human ABCB1 expressed in mouse L5178Y cells assessed as fluorescence activity ratio at 2 uM pretreated for 10 mins followed by rhodamine-123 addition after 20 mins by flow cytometry. The class given is cell-based.
Series [9] shares this target. Put plainly: Inhibition of human ABCB1 expressed in mouse L5178Y cells assessed as fluorescence activity ratio at 20 uM pretreated for 10 mins followed by rhodamine-123 addition after 20 mins by flow cytometry. Type of series: cell-based.
For series [10] the target is unchanged. Description: Inhibition of human ABCB1 expressed in mouse L5178Y cells pretreated for 10 mins followed by rhodamine-123 addition after 20 mins by flow cytometry. Type of series: cell-based.
For series [11] the target is unchanged. Put plainly: Inhibition of human ABCB1 expressed in mouse L5178Y cells assessed as potentiation of doxorubicin-induced cytotoxicity by measuring combination index at 4:25 doxorubicin to compound ratio after 48 hrs by MTT assay. Type of series: cell-based.
Series [12] is described as follows: Selectivity index, ratio of IC50 for mouse NIH/3T3 cells to IC50 for mouse L5178Y cells. The class given is functional.
For series [13], the target named is T1, ATP-dependent translocase ABCB1. Put plainly: Inhibition of human ABCB1 expressed in mouse L5178Y cells assessed as potentiation of doxorubicin-induced cytotoxicity by measuring combination index at 2:25 doxorubicin to compound ratio after 48 hrs by MTT assay. The class given is cell-based.
Series [14] has the same target. Put plainly: Inhibition of human ABCB1 expressed in mouse L5178Y cells assessed as potentiation of doxorubicin-induced cytotoxicity by measuring combination index at 1:25 doxorubicin to compound ratio after 48 hrs by MTT assay. The class given is cell-based.
For series [15] the target is unchanged. Put plainly: Inhibition of human ABCB1 expressed in mouse L5178Y cells assessed as potentiation of doxorubicin-induced cytotoxicity by measuring combination index at 2:5 doxorubicin to compound ratio after 48 hrs by MTT assay. Type of series: cell-based.
Series [16] has the same target. Put plainly: Inhibition of human ABCB1 expressed in mouse L5178Y cells assessed as potentiation of doxorubicin-induced cytotoxicity by measuring combination index at 1:5 doxorubicin to compound ratio after 48 hrs by MTT assay. The class given is cell-based.

T1 sequence (P08183 whole entry): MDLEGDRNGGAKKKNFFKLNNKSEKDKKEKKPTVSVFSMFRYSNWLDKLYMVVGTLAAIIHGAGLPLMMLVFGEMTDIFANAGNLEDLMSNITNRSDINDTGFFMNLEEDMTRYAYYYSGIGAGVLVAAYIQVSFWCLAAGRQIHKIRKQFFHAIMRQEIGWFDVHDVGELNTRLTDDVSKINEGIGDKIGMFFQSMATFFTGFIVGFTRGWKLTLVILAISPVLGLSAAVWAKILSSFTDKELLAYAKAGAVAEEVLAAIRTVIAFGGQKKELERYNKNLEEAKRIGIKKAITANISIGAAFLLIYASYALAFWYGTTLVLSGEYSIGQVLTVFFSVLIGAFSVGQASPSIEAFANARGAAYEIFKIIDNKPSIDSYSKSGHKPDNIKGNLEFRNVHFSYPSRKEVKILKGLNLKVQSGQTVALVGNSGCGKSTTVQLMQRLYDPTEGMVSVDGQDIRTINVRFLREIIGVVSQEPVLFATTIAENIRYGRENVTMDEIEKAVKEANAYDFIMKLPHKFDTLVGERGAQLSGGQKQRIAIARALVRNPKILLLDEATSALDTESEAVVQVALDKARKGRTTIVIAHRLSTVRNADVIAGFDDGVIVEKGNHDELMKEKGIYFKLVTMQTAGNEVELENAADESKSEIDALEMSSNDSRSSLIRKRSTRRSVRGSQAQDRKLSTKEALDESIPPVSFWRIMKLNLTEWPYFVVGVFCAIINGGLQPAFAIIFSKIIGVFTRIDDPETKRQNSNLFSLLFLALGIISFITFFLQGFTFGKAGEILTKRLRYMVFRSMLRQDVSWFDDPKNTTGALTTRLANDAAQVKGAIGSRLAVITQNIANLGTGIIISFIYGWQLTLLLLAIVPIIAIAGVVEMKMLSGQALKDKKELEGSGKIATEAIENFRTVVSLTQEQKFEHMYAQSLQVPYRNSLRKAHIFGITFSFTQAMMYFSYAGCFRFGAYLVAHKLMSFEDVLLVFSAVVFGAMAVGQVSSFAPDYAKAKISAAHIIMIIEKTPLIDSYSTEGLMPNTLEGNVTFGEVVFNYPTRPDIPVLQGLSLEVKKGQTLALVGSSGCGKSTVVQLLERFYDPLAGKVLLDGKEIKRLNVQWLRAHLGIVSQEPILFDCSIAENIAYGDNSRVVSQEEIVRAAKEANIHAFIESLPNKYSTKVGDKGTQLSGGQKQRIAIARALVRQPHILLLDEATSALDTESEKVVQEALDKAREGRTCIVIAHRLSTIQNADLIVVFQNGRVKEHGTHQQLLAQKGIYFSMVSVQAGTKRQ

On to `CC[C@H]1CN(C)[C@H]2Cc3c([nH]c4ccccc34)/C(=N/Nc3ccccc3)C[C@H]1[C@@H]2C(=O)OC`, for which the IC50 (commonly the concentration that gives 50% inhibition) in [1] was 44.2 µM; in [2], above 100 µM. The “Ratio IC50” value in [3] was determined as 0.84. The Activity in [4] worked out at 2183; in series [5], 2158; in [6] it was 1046; in series [7], 1071. The Ratio in series [8] is 8.84; in series [9], 60.89. Also, in [10], the “inhibition (INH)” value is “Dose-dependent effect”. In [11], the CI is on record as 0.34.
In the case of `CC[C@@H]1CN(C)[C@H]2Cc3c([nH]c4ccccc34)/C(=N/Nc3ccccc3)C[C@H]1[C@@H]2C(=O)OC`, the IC50 in [1] stood at 11.4 µM; in series [2], 19.9 µM. Further, the “Ratio IC50” value was 0.67 in series [3] and 1.74 in series [12]. Also, the Activity came out at 2129 in [4], 2046 in [5], 941 in series [6] and 955 in [7]. In addition, the values for the Ratio in series [8] and in series [9] were 5.49 and 59.65, respectively. The “inhibition (INH)” value in [10] is recorded as “Dose-dependent effect”. Further, the CI in series [13] was 0.2.
`CC[C@H]1CN(C)[C@H]2Cc3c(n(Cc4ccccc4)c4ccccc34)C(=O)C[C@H]1[C@@H]2C(=O)OC`: the results for the IC50 in series [1] and in series [2] were 33.3 µM and 56.1 µM, respectively. The “Ratio IC50” value is listed as 0.87 in [3] and 1.68 in [12]. Also, the Activity in [4] is reported as 2417; in [5] it was 2449; in series [6], 1217; in series [7], 1193. In addition, the Ratio in [8] amounted to 4.82; in series [9] it was 55.74. Moreover, the “inhibition (INH)” value in series [10] is “Dose-dependent effect”. The CI in [14] is 0.23.
Turning to `CC[C@H]1CN(C)[C@H]2Cc3c([nH]c4ccccc34)/C(=N/Nc3cnccn3)C[C@H]1[C@@H]2C(=O)OC`, the IC50 was 75 µM in series [1] and above 100 µM in series [2]. For the same molecule, in series [3], the “Ratio IC50” value is 0.88. In addition, the Activity in series [4] was found to be 2227; in series [5], 2229; in series [6] it was 1058; in series [7], 1038. The Ratio in series [8] is listed as 8.49; in [9], 60.79. Besides, the “inhibition (INH)” value in series [10] is “Dose-dependent effect”. Besides, the CI in [15] is 0.1.
For the molecule `CC[C@H]1CN(C)[C@H]2Cc3c(n(C)c4ccccc34)C(=O)C[C@H]1[C@@H]2C(=O)OC`, the IC50 in [1] was 40.4 µM; in series [2], above 100 µM. For the same molecule, the “Ratio IC50” value in series [3] came to 0.45. The Activity was 2435 in series [4], 2428 in series [5], 1214 in [6] and 1197 in [7]. The Ratio in series [8] was 1.81; in series [9] it was 46.7. Further, in series [10], the “inhibition (INH)” value is “Dose-dependent effect”. In addition, the CI in series [15] stood at 0.24.
As to `CC[C@H]1CN(C)[C@H]2Cc3c([nH]c4ccccc34)/C(=N/NC(=O)OCc3ccc(OC)cc3)C[C@H]1[C@@H]2C(=O)OC`, the IC50 in series [1] was 34.3 µM; in [2] it was above 100 µM. The “Ratio IC50” value in series [3] was 0.65. In addition, the Activity in series [4] worked out at 2262; in series [5], 2278; in [6], 784; in series [7] it was 746. In addition, the Ratio in [8] is 31.88; in [9], 72.88. For the same molecule, the “inhibition (INH)” value in series [10] is “Dose-dependent effect”. In series [14], the CI came out at 0.16.
As for `CC[C@H]1CN(C)[C@H]2Cc3c([nH]c4ccccc34)C(=S)C[C@H]1[C@@H]2C(=O)OC`, the IC50 was 54.5 µM in series [1] and above 100 µM in [2]. Also, the “Ratio IC50” value in series [3] came out at 0.7. The Activity in series [4] worked out at 2242; in series [5] it was 2242; in series [6], 1120; in [7], 1226. Further, the Ratio in series [8] stood at 2.99; in series [9], 51.15. In addition, the “inhibition (INH)” value in series [10] is recorded as “Dose-dependent effect”. Also, the CI in series [16] is reported as 0.22.
As to `CC[C@@H]1CN(C)[C@H]2Cc3c([nH]c4ccccc34)/C(=N/Nc3cnccn3)C[C@H]1[C@@H]2C(=O)OC`, the IC50 was 63.9 µM in series [1] and above 100 µM in series [2]. Moreover, the Activity in series [4] is given as 2283; in series [5] it was 2265; in series [6], 793; in series [7], 765. For the same molecule, the Ratio in [8] turned out to be 10.28; in [9], 78.79. Besides, the “inhibition (INH)” value in series [10] is “Dose-dependent effect”. The CI in series [15] is recorded as 0.31.
As to `CC[C@@H]1CN(C)[C@H]2Cc3c([nH]c4ccccc34)[C@@H](O)C[C@H]1[C@@H]2C(=O)OC`, the values for the IC50 in series [1] and in series [2] were 55.6 µM and above 100 µM, respectively. Also, the “Ratio IC50” value in [3] came to 0.66. The Activity was 2251 in series [4], 2083 in series [5], 793 in series [6] and 788 in series [7]. Besides, the Ratio in series [8] is 0.88; in series [9] it was 1.36. Moreover, the “inhibition (INH)” value in series [10] was “Dose-dependent effect”. For the same molecule, the CI in series [15] is on record as 0.4.
In the case of `CC[C@H]1CN(C)[C@H]2Cc3c([nH]c4ccccc34)/C(=N/NC(=S)NCc3cccnc3)C[C@H]1[C@@H]2C(=O)OC`, the IC50 came out at 20.8 µM in [1] and 50.9 µM in series [2]. Besides, the “Ratio IC50” value in series [3] was 0.46; in series [12], 2.45. Also, the Activity in [4] stood at 2244; in series [5], 2301; in series [6], 808; in series [7] it was 805. Also, the Ratio is recorded as 1.27 in series [8] and 30.98 in series [9]. Moreover, the “inhibition (INH)” value in series [10] is “Dose-dependent effect”. The CI in series [11] turned out to be 0.6.
